Test results as given in ChEMBL document CHEMBL5233269, “Anticancer potential of spirocompounds in medicinal chemistry: A pentennial expedition” (Eur J Med Chem, 2021).
Values after ≈ are worked out from the molar mass of the structure shown. Values belong to the compound of their own block, whether it stands above or below them.

Experiments:
HepG2 [1] = assay: Anticancer activity against human HepG2 cells measured after 48 hrs by Sulforhodamine B assay; format: functional, cell-based; conditions: HepG2, 48 h
T47D = assay: Anticancer activity against human T47D cells measured after 48 hrs by Sulforhodamine B assay; format: functional, cell-based
HeLa [2] = assay: Anticancer activity against human HeLa cells measured after 48 hrs by Sulforhodamine B assay; format: functional, cell-based
HCT-116 [3] = assay: Anticancer activity against human HCT-116 cells measured after 48 hrs by Sulforhodamine B assay; format: functional, cell-based; conditions: HCT-116, 48 h
MCF7 [4] = assay: Anticancer activity against human MCF7 cells measured after 48 hrs by Sulforhodamine B assay; format: functional, cell-based; conditions: MCF7, 48 h
HCT-116 [5] = assay: Cytotoxicity against human HCT-116 cells assessed a reduction in cell viability; format: functional, cell-based
MDA-MB-231 [6] = assay: Cytotoxicity against human MDA-MB-231 cells; format: functional, cell-based
MCF7 [7] = assay: Cytotoxicity against human MCF7 cells; format: functional, cell-based
[8] = Cytotoxicity against human H357 cells; format: functional, cell-based
HOP-92 = assay: Anticancer activity against human HOP-92 cells assessed as reduction in cell proliferation; format: functional, cell-based
UO-31 = assay: Anticancer activity against human UO-31 cells assessed as reduction in cell proliferation; format: functional, cell-based
A549 [9] = assay: Anticancer activity against human A549 cells assessed as reduction in cell proliferation; format: functional, cell-based
PC-3 = assay: Anticancer activity against human PC-3 cells assessed as reduction in cell proliferation; format: functional, cell-based
WI-38 = assay: Cytotoxicity against human WI-38 cells assessed as reduction in cell growth; format: functional, cell-based
MCF7 [10] = assay: Cytotoxicity against human MCF7 cells assessed as reduction in cell growth; format: functional, cell-based
[11] = tested on: Panel NCI-60 (60 carcinoma cell lines); assay: Growth inhibition of human Panel NCI-60 (60 carcinoma cell lines) cells; format: functional
HaCaT = assay: Growth inhibition of human HaCaT cells; format: functional
Androgen receptor [12] = molecular target: T1, Androgen receptor (Homo sapiens, UniProt P10275); assay: Antagonist activity at androgen receptor (unknown origin)
Androgen receptor [13] = molecular target: T1, Androgen receptor; assay: Antagonist activity at androgen receptor (unknown origin) assessed as inhibition constant
Jurkat = assay: Cytotoxicity against human Jurkat cells; format: functional, cell-based
MDA-MB-231 [14] = assay: Antiproliferative activity against human MDA-MB-231 cells assessed as reduction in tumor cell proliferation; format: functional, cell-based
HL-60 [15] = assay: Induction of mitochondrial membrane potential loss in human HL-60 cells measured after 72 hrs by […] based flow cytometric analysis; format: functional, cell-based; conditions: HL-60, 72 h
HL-60 [16] = assay: Induction of mitochondrial membrane potential loss in human HL-60 cells measured after 72 hrs by TMRM dye based flow cytometric analysis; format: functional, cell-based; conditions: HL-60, 72 h
MCF7 [17] = assay: Cytotoxicity against human MCF7 cells assessed as lethal dose; format: functional; conditions: read-out: LD50 (the source's name)
HCT-116 [18] = assay: Anticancer activity against human HCT-116 cells measured after 72 hrs by SRB assay; format: functional, cell-based; conditions: HCT-116, 72 h
Huh-7 = assay: Anticancer activity against human Huh-7 cells measured after 72 hrs by SRB assay; format: functional, cell-based; conditions: Huh-7, 72 h
Mahlavu = assay: Anticancer activity against human Mahlavu cells measured after 72 hrs by SRB assay; format: functional, cell-based
MCF7 [19] = assay: Anticancer activity against human MCF7 cells measured after 72 hrs by SRB assay; format: functional, cell-based; conditions: MCF7, 72 h
HeLa [20] = assay: Cytotoxicity against human HeLa cells assessed as reduction in cell viability; format: functional, cell-based
MCF7 [21] = assay: Cytotoxicity against human MCF7 cells assessed as reduction in cell viability; format: functional, cell-based
[22] = Cytotoxicity against HEK293T cells incubated for 72 hrs by MTT assay; format: toxicity, cell-based, HEK-293T; conditions: human
A549 [23] = assay: Cytotoxicity against human A549 cells incubated for 72 hrs by MTT assay; format: functional, cell-based; conditions: A549, 72 h
MCF7 [24] = assay: Cytotoxicity against human MCF7 cells incubated for 72 hrs by MTT assay; format: functional, cell-based; conditions: MCF7, 72 h
[25] = Cytotoxicity against human VA13 cells incubated for 72 hrs by MTT assay; format: toxicity, cell-based; conditions: VA13 (WI-38 VA13) cells
HepG2 [26] = assay: Cytotoxicity against human HepG2 cells incubated overnight by MTT assay; format: functional, cell-based
MCF7 [27] = assay: Cytotoxicity against human MCF7 cells incubated overnight by MTT assay; format: functional, cell-based
HCT-116 [28] = assay: Cytotoxicity against human HCT-116 cells incubated overnight by MTT assay; format: functional, cell-based
NCI-H460 = assay: Growth inhibition of human NCI-H460 cells; format: functional, cell-based

T1 sequence (P10275 whole entry): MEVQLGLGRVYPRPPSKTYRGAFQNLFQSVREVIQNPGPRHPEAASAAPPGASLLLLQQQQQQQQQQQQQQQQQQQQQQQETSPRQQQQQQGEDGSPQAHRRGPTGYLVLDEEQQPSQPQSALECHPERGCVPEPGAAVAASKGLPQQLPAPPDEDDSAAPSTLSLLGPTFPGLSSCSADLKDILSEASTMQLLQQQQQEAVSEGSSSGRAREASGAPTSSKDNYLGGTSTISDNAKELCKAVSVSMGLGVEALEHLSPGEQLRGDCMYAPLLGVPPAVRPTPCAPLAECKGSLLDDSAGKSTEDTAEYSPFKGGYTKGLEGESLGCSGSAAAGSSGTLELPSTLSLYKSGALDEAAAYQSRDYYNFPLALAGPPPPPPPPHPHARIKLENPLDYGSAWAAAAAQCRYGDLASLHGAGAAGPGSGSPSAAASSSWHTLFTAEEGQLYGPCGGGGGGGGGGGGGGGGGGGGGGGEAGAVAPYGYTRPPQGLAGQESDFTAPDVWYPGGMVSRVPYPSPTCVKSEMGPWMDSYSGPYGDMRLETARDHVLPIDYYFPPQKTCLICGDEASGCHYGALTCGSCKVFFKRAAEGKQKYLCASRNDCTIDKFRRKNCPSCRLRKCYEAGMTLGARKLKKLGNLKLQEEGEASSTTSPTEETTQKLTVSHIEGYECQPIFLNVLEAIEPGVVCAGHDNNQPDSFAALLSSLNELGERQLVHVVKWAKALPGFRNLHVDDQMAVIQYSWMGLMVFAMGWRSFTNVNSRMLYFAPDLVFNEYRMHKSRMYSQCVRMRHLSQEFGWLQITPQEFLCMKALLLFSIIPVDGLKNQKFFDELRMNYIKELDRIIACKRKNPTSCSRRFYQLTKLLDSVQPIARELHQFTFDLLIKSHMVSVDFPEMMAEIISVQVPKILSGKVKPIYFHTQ

IC50 (HepG2 [1]): 3.08 µM | IC50 (T47D): 2.98 µM | IC50 (HeLa [2]): 2.88 µM | IC50 (HCT-116 [3]): 2.86 µM | IC50 (MCF7 [4]): 3.1 µM
Structure (SMILES): COc1ccc2c(c1)[C@]1(C(=O)N2)N(C)C[C@@H](c2ccc(F)cc2)[C@@]12CN(C)C/C(=C\c1ccc(F)cc1)C2=O

Structure (SMILES): CCOc1cccc2c1OCC1=CCC3(O[C@H]12)C(=O)c1ccccc1C3=O
IC50 (HCT-116 [5]): 27.5 µM | IC50 (MDA-MB-231 [6]): 15 µM | IC50 (MCF7 [7]): 20 µM | IC50 [8]: 55 µM

IC50 (A549 [9]): 3.59 µM | IC50 (PC-3): 0.831 µM
Structure (SMILES): Cc1ccc(/C=C2\CN(C)C[C@]3(C2=O)[C@H](c2ccc(C)cc2)CN(C)[C@]32C(=O)N(CN3CCOCC3)c3ccccc32)cc1
IC50 (HOP-92): 1.4 µM | IC50 (UO-31): 1.77 µM

Structure (SMILES): CN1C(=O)C2(SCC3C(=O)N(CC(=O)NN)N=C(c4ccc(Cl)c(Cl)c4)C32)c2ccccc21 (stereo not drawn)
IC50 (WI-38): 11.2 µM | IC50 (MCF7 [10]): 8.16 µM

Structure (SMILES): C1=CC2=CC3CCCC4=Cc5ccccc5OC43OC2C=C1 (stereo not drawn)
GI50 [11]: < 10 µM

Structure (SMILES): N#CC1=CC2(c3ccccc3NC3C=CC=CC32)N(/N=C/c2ccccc2)C1=O (stereo not drawn)
GI50 (HaCaT): 2 µM

Structure (SMILES): COC(=O)c1ccc(C2C(=S)N(c3ccc(C#N)c(C(F)(F)F)c3)C(=O)[C@]23CCOC3)cc1F (stereo partly drawn)
IC50 (Androgen receptor [12]): 0.033 µM | Ki (Androgen receptor [13]): 0.0056 µM

Structure (SMILES): O=C(/C=C1\CC(=O)N(c2ccc(Cl)cc2)C1=O)Nc1ccc(Cl)cc1
IC50 (Jurkat): 33.5 µM

IC50 (MDA-MB-231 [14]): 44.6 µM
Structure (SMILES): O=C1N(C2CCCCC2)C(=O)C2(CC(c3ccccc3O)=NCCN2)N1C1CCCCC1 (stereo not drawn)

IC50 (HL-60 [15]): 32.2 µM | IC50 (HL-60 [16]): 25.9 µM
Structure (SMILES): O=C1CS/C(=C\C2c3ccccc3Nc3ccccc32)N1N(c1ccccc1)c1ccccc1

Structure (SMILES): COC1=C(Br)[C@@H](O)[C@]2(C=C1Br)CC(C(=O)NCC(O)c1cc(Br)c(OCCCNC(=O)C3=NO[C@]4(C=C(Br)C(OC)=C(Br)[C@@H]4O)C3)c(Br)c1)=NO2 (stereo partly drawn)
CC50 (MCF7 [17]): 17 µg/mL (≈ 15.5 µM)

IC50 (HCT-116 [18]): 3.9 µM | IC50 (Huh-7): 8.2 µM | IC50 (MCF7 [19]): 4.8 µM
Structure (SMILES): CCNC(=O)[C@H]1[C@H](c2ccc([N+](=O)[O-])cc2)[C@@]2(C(=O)Cc3ccccc32)[C@H](CC(C)C)N1[C@H](c1ccccc1)[C@@H](O)c1ccccc1
IC50 (Mahlavu): 14.9 µM

IC50 (HepG2 [1]): 3.08 µM | IC50 (T47D): 3.1 µM | IC50 (HeLa [2]): 2.75 µM | IC50 (HCT-116 [3]): 2.74 µM | IC50 (MCF7 [4]): 2.98 µM
Structure (SMILES): CN1C/C(=C\c2ccc(F)cc2)C(=O)[C@@]2(C1)[C@H](c1ccc(F)cc1)CN(C)[C@]21C(=O)Nc2ccc(Cl)cc21

Structure (SMILES): Cc1ccc2[nH]c3c(c2c1)CC1(C3=O)C(c2cccc3ccccc23)C2CSCN2C12C(=O)Nc1ccccc12 (stereo not drawn)
IC50 (HeLa [20]): 24.4 µM | IC50 (MCF7 [21]): 32.6 µM

Structure (SMILES): CN1C[C@H](c2ccc(Cl)cc2)[C@]2(NC(=O)NC2=O)C12C(=O)Nc1ccc(Br)cc12 (stereo partly drawn)
IC50 at 72 h [22]: 9.2 µM | IC50 (A549 [23]): 6.6 µM | IC50 (MCF7 [24]): 24.1 µM | IC50 at 72 h [25]: 11.9 µM

Structure (SMILES): O=C(/C=C/c1ccc(Br)cc1)[C@H]1[C@H](c2ccc(Br)cc2)C2CSCN2[C@]12C(=O)Nc1cc(Br)c(Br)cc12 (stereo partly drawn)
IC50 (HepG2 [26]): 50 µM | IC50 (MCF7 [27]): 2.5 µM | IC50 (HCT-116 [28]): 2.2 µM

IC50 (NCI-H460): 0.12 µM
Structure (SMILES): COc1ccc(/C=N/N2C(=O)C(C#N)=CC23c2ccccc2NC2C=CC=CC23)cc1 (stereo not drawn)
